US20180042929A1, “USE OF SUBSTITUTED 2,3-DIHYDROIMIDAZO[1,2-C]QUINAZOLINES” (Bayer Pharma Aktiengesellschaft, priority 2015, published 2018)

What was measured:
[1] = tested on: MFE-280 xenograft tumor model; experiment: In vivo efficacy in MFE-280 xenograft tumor model; set-up: species or system nude mice; details: doxorubicin group
Method: (§1) The in vivo efficacy was evaluated in tumor xenograft models in nude mice with established human tumor cell lines at the MTD and sub-MTD dosages. Tumor cells were cultivated according to ATCC protocols in recommended media contained 10% FCS. Cells were harvested for transplantation in a subconfluent (70%) state. The volume of implantation was 100 μl for mice. When the tumors were approximately in size of 25-50 mm^2, the animals were randomized to treatment and control groups and treatment was started. Treatment of each animal was based on individual body weight. The optimal formulation, application route and schedule were used for each compound (see table 2). Oral administration (p.o.) was carried out via a gastric tube. The oral application volumes were 10 ml/kg and the intravenous application volumes were 10 ml/kg. Tumor area (product of the longest diameter and its perpendicular) using a calliper. The animal body weight was monitored as a measure for treatment-related toxicity. Measurement of tumor area and body weight was performed 2-3 times weekly. T/C ratios (Treatment/Control) were calculated with final tumor areas. Treatment responses were evaluated by means of the clinically-used RECIST criteria (complete response, partial response, stable disease and progressive disease) and response rates were calculated accordingly (RR=number of animals with complete and partial response).

[2] = tested on: HEC-1B xenograft tumor model; assay type: in vivo; details: 10 mg/kg Q14D i.p.
Method: as §1, with “T/C ratios (Treatment/Control) were calculated with final tumor areas.” left out

[3] = dose not printed (i.p. Q14D per Table 2)

## COc1cccc2c1C(=O)c1c(O)c3c(c(O)c1C2=O)C[C@@](O)(C(=O)CO)C[C@@H]3O[C@H]1C[C@H](N)[C@H](O)[C@H](C)O1 [Doxorubicin]
[1]; dose not given
  CR (%): 0%
  PD (%): 37.5%
  PR (%): 12.5%
  RR (%): 12.5%
[1]; [3]
  T/C (tumor area): 0.51
  T/C (tumor weight): 0.39
[2]
  PD (progressive disease, number of tumors): 6
  Response rate: 0%
[2]; study end
  T/C area (Treatment/Control ratio, mean tumor areas): 0.56
  T/C weight (Treatment/Control ratio, final tumor weights): 0.48
